# Test results reported in patent publication US20230399358A1, “IMMUNOGLOBULIN PURIFICATION PEPTIDES AND THEIR USE” (North Carolina State University, priority 2019, published 2023).
# Assays:
# [1] = test system: human IgG; type: binding; conditions: peptide on Toyopearl AF-amino-650M, 30 min, room temperature
# Description: Measurement of IgG binding by peptide-based chromatographic adsorbents: For initial studies, 35 mg of MWRGWQ (SEQ ID NO:2)-Toyopearl, RHLGWF (SEQ ID NO:3)-Toyopearl, WQRHGI (SEQ ID NO:1)-Toyopearl, GWLHQR (SEQ ID NO:4)-Toyopearl, and HWRGWV (SEQ ID NO:18)-Toyopearl (control) resins were equilibrated in PBS pH 7.4, reaching a swollen volume of 0.1 mL, and subsequently incubated with 1 mg/mL IgG in 0.205 mg/mL CHO cell culture supernatant for 30 minutes. The resins were subsequently washed several times with PBS to remove non-specifically bound proteins. Elution was performed with 100 mM glycine buffer pH 2.5. Flowthrough and elution fractions were collected and analyzed by SDS PAGE under reducing conditions. The resulting gels were stained with Coomassie staining. Further, 25 mg of the adsorbents MWRGWQ (SEQ ID NO:2)-Toyopearl, NIFRGWQ (SEQ ID NO:21)-Toyopearl, MWRAWQ (SEQ ID NO:5)-Toyopearl, MWRGFQ (SEQ ID NO:7)-Toyopearl, MWRGWN (SEQ ID NO:22)-Toyopearl, (NorL) WRGWQ (SEQ ID NO:23)-Toyopearl, MGRGWQ (SEQ ID NO:24)-Toyopearl, MWRWQ (SEQ ID NO:6)-Toyopearl, MWRGGQ (SEQ ID NO:26)-Toyopearl, GWRGWQ (SEQ ID NO:8)-Toyopearl, WQRHGI (SEQ ID NO:1)-Toyopearl, WNRHGI (SEQ ID NO:12)-Toyopearl, WQRAGI (SEQ ID NO:28)-Toyopearl, WQRHAI (SEQ ID NO:11)-Toyopearl, WQRHGL (SEQ ID NO:9)-Toyopearl, FQRHGI (SEQ ID NO:29)-Toyopearl, and WQRHGV (SEQ ID NO:10)-Toyopearl resins were equilibrated in PBS pH 7.4, reaching a swollen volume of 0.1 mL, and subsequently incubated with 1 mg/mL IgG in PBS at pH 7.4 for 30 minutes. The amount of unbound IgG in the supernatant samples was quantified by Bradford assay and utilized to determine the IgG binding % by the peptide variants.
# A limited library of residue-by-residue changes confirmed the importance of each residue in peptides WQRHGI (SEQ ID NO:1) and MWRGWQ (SEQ ID NO:2) in reducing the binding energy between the peptide and the IgG target. […] This was accomplished by designing and constructing an ensemble of 20 variants of peptides WQRHGI (SEQ ID NO:1) and MWRGWQ (SEQ ID NO:2). Selected residues in positions 1-6 were mutated. The peptide variants were synthesized directly on Toyopearl AF-amino-650M resin via Fmoc/tBu chemistry. The resulting adsorbents were incubated with a solution of human IgG at 2 mg/mL at a ratio of 1 mL of resin per 3.5 mL of solution for 30 min at room temperature. The residual concentration of IgG in solution was determined by Bradford concentration assay of the supernatants and utilized to calculate the amounts of bound IgG per volume of resin; Table 7 reports the % binding, defined as mg IgG bound by variant/mg IgG bound by original sequence (either WQRHGI (SEQ ID NO:1) or MWRGWQ (SEQ ID NO:2))×100%, of each sequence variant.
# [2] = test system: human polyclonal IgG in CHO-S cell culture fluid; experiment: Static purification of IgG from CHO cell culture supernatant on peptide-Toyopearl resins, SDS-PAGE densitometry; conditions: Gel B
substance,measurement,setting,value
WQRHGI,% Binding (mg IgG bound by variant/mg IgG bound by original sequence × 100%),[1],100.00%
same,% Purity (IgG over total proteins),[2]; lane FT (flow-through),52.71%
same,% Purity (IgG over total eluted proteins),[2]; lane R (pH 2.5),78.79%
